This data set can be described thus: HILIC, Waters ACQUITY UPLC BEH Amide, 100 × 2.1 mm, 1.7 µm; A: water + 0.125% formic acid + 10 mM ammonium formate; B: 5% water + 95% acetonitrile + 0.125% formic acid + 10 mM ammonium formate; gradient (min/%B) 0/100 2/100 7.7/70 9.5/40 10.25/30 12.75/100 17/100. The settings on record: stereoisomer not certain.
On to `Nc1ccc(O)c(C(=O)O)c1`, for which the LC retention time turned out to be 3.89 min.
With `Nc1nc2ccc(Cl)cc2c2nc(-c3ccco3)nn12` the figure was 1.07 min.
For `NC1CCN(c2cccc(Cl)n2)CC1`, the LC retention time was 4.85 min.
With `C=C(C)CN1CCC23c4c5ccc(O)c4OC2c2[nH]c4ccccc4c2CC3(O)C1C5` (centres undefined) the figure was 2.93 min.
With `CC(=O)NCCCCCCNC(C)=O` the figure was 1.5 min; with `COCC1=C(C(=O)OC(C)OC(=O)OC(C)C)N2C(=O)C(NC(=O)C(=NOC)c3csc(N)n3)C2SC1` (centres undefined), 1.12 min; with `Cc1sc(N)c(C(=O)c2cccc(C(F)(F)F)c2)c1C`, 0.94 min.
Take `Cc1cc2nc3c(=O)[nH]c(=O)nc-3n(CC(O)C(O)C(O)COP(=O)(O)OP(=O)(O)OCC3OC(n4cnc5c(N)ncnc54)C(O)C3O)c2cc1C` (centres undefined): the LC retention time stood at 9.52 min.
The same measure for `Cc1cn(C2CC(O)C(COP(=O)(O)O)O2)c(=O)[nH]c1=O` (centres undefined): 8.28 min; for `CN1CCC2(c3cccc(O)c3)Cc3nc4ccccc4cc3CC2C1` (centres undefined): 5.11 min; for `CN1CCN(c2nc3cc(C(F)(F)F)ccc3n3cccc23)CC1`: 2.21 min.
For `COC(=O)N1CCN(C(=O)Cc2ccc(Cl)c(Cl)c2)C(CN2CCCC2)C1` (centres undefined), the LC retention time is 2.56 min.
On to `COc1ccc2[nH]cc(C3=CCNCC3)c2c1`, for which the LC retention time amounted to 4.61 min.
The same measure for `OC1CCCCC1O` (centres undefined) [1,2-Cyclohexanediol]: 4.88 min; for `O=C1CCCCC1=O` [1,2-Cyclohexanedione]: 5.77 min; for `O=C1CCCC(=O)C1` [1,3 Cyclohexanedione]: 1.47 min.
With `CC12CCC3c4ccc(O)cc4CCC3C1CCC2=O` (centres undefined) [1,3,5(10)-Estratrien-3-ol-17-one] the figure was 1.01 min; with `Cn1c(=O)c2c([nH]c(=O)n2C)n(C)c1=O` [1,3,7-Trimethyluric acid], 1.83 min.
With `O=C(O)C1CCC(C(=O)O)CC1` (centres undefined) [1,4-Cyclohexanedicarboxylic acid] the figure was 1.56 min.
For `O=C1CCC(=O)CC1` [1,4-Cyclohexanedione], the LC retention time is 1.15 min.
In the case of `OCC1OCC(O)C(O)C1O` (centres undefined) [1,5-Anhydrosorbitol], the LC retention time came out at 0.92 min.
With `Cn1c(=O)[nH]c2[nH]c(=O)n(C)c2c1=O` [1,7-Dimethyluric acid] the figure was 4.09 min; with `Cn1c(=O)[nH]c2ncn(C)c2c1=O` [1,7-Dimethylxanthine], 1.69 min; with `CC(=O)n1ccnc1` [1-Acetylimidazole], 1.37 min.
With `c1ccc(Cn2ccnc2)cc1` [1-Benzylimidazole] the figure was 1.63 min; with `Cn1cnc2c(ncn2C2OC(CO)C(O)C2O)c1=N` (centres undefined) [1-Methyladenosine], 7.46 min.
Take `Cn1c(N)nc2c(ncn2C2OC(CO)C(O)C2O)c1=O` (centres undefined) [1-Methylguanosine]: the LC retention time was 5.84 min.
The same measure for `C[n+]1cccc(C(N)=O)c1` [1-Methylnicotinamide]: 6.26 min; for `Cn1cc(C2OC(CO)C(O)C2O)c(=O)[nH]c1=O` (centres undefined) [1-Methylpseudouridine]: 4.99 min; for `Cn1cc(CC(N)C(=O)O)c2ccccc21` (centres undefined) [1-Methyltryptophan]: 6.38 min.
Take `Cn1c(=O)[nH]c2[nH]c(=O)[nH]c2c1=O` [1-Methyluric acid]: the LC retention time stood at 2.18 min.
For the compound `CCCCCCCCCCCCCCCCCC(=O)OCC(O)CO` (centres undefined) [1-Monostearin], the LC retention time is 0.99 min.
As to `O=c1[nH]cnc2c1ncn2C1CCC(CO)O1` (centres undefined) [2',3'-Dideoxyinosine], the LC retention time came out at 3.44 min.
The same measure for `Nc1ncnc2c1ncn2C1CC(O)C(COP(=O)(O)O)O1` (centres undefined) [2'-Deoxyadenosine-5'-monophosphate]: 8.63 min.
With `Nc1ncnc2c1ncn2C1CC(O)C(CO)O1` (centres undefined) [2'-Deoxyadenosine] the figure was 3.92 min; with `Nc1ccn(C2CC(O)C(CO)O2)c(=O)n1` (centres undefined) [2'-Deoxycytidine], 5.87 min.
In the case of `Nc1nc2c(ncn2C2CC(OP(=O)(O)O)C(CO)O2)c(=O)[nH]1` (centres undefined) [2'-Deoxyguanosine 3'-monophosphate], the LC retention time amounted to 9.43 min.
The same measure for `Nc1nc2c(ncn2C2CC(O)C(COP(=O)(O)O)O2)c(=O)[nH]1` (centres undefined) [2'-Deoxyguanosine 5'-monophosphate]: 9.25 min.
The same measure for `Nc1nc2c(ncn2C2CC(O)C(CO)O2)c(=O)[nH]1` (centres undefined) [2'-Deoxyguanosine]: 6.4 min; for `COC1C(O)C(CO)OC1n1cc(C)c(N)nc1=O` (centres undefined) [2'-O-Methyl-5-methylcytidine]: 4.93 min; for `COC1C(O)C(CO)OC1n1cc(C)c(=O)[nH]c1=O` (centres undefined) [2'-O-Methyl-5-methyluridine]: 1.75 min.
The same measure for `COC1C(O)C(CO)OC1n1cnc2c(N)ncnc21` (centres undefined) [2'-O-Methyladenosine]: 2.6 min; for `COC1C(O)C(CO)OC1n1ccc(N)nc1=O` (centres undefined) [2'-O-Methylcytidine]: 5.02 min.
On to `COC1C(O)C(CO)OC1n1cnc2c(=O)[nH]c(N)nc21` (centres undefined) [2'-O-Methylguanosine], for which the LC retention time is 5.72 min.
With `COC1C(O)C(CO)OC1n1cnc2c(=O)[nH]cnc21` (centres undefined) [2'-O-Methylinosine] the figure was 4.06 min; with `COC1C(O)C(CO)OC1n1ccc(=O)[nH]c1=O` (centres undefined) [2'-O-Methyluridine], 2.24 min.
With `CC(O)C(C)O` (centres undefined) [2,3-Butanediol] the figure was 3.34 min.
With `Nc1ccn(C2CCC(CO)O2)c(=O)n1` (centres undefined) [2,3-Dideoxycytidine] the figure was 4.54 min; with `O=c1ccn(C2CCC(CO)O2)c(=O)[nH]1` (centres undefined) [2,3-Dideoxyuridine], 1.73 min; with `NC(CCCC(N)C(=O)O)C(=O)O` (centres undefined) [2,6-Diaminopimelic acid], 9.88 min.
As for `O=c1ccc2cccc(O)c2[nH]1` [2,8-Quinolinediol], the LC retention time is 1.53 min.
Turning to `NCCc1ccccn1` [2-(2-Aminoethyl)pyridine], the LC retention time is 5.52 min.
With `COc1cccc(C(=O)O)c1N` [2-Amino-3-methoxybenzoic acid] the figure was 1.27 min; with `NCC(=O)c1ccccc1` [2-Aminoacetophenone], 1.08 min; with `NCCS` [2-Aminoethanethiol], 2.05 min.
Consider `NCCP(=O)(O)O` [2-Aminoethylphosphonic acid], for which the LC retention time is 9.39 min.
With `Nc1ccccc1O` [2-Aminophenol] the figure was 1.22 min.
With `OCC1OC(n2cnc3c(NC4CCCC4)nc(Cl)nc32)C(O)C1O` (centres undefined) [2-Chloro-N6-cyclopentyladenosine], the LC retention time is 1.47 min.
As to `Nc1nc(Cl)nc2c1ncn2C1OC(CO)C(O)C1O` (centres undefined) [2-Chloroadenosine], the LC retention time worked out at 2.69 min.
Regarding `Nc1ccn(C2CC(O)C(COP(=O)(O)O)O2)c(=O)n1` (centres undefined) [2-Deoxycytidine-5-monophosphoric acid], the LC retention time amounted to 9.16 min.
The same measure for `O=CCC(O)C(O)CO` (centres undefined) [2-Deoxyribose]: 1.42 min; for `O=c1ccn(C2CC(O)C(CO)O2)c(=O)[nH]1` (centres undefined) [2-Deoxyuridine]: 2.96 min.
With `CCCC=CC=O` [2-Hexenal] the figure was 1.39 min.
The same measure for `CC(C)C(O)C(=O)O` (centres undefined) [2-Hydroxy-3-methylbutyric acid]: 1.29 min; for `CC(C)CC(O)C(=O)O` (centres undefined) [2-Hydroxy-4-methylpentanoic acid]: 1.57 min; for `O=C(CO)c1ccccc1` [2-Hydroxyacetophenone]: 4.36 min.
Regarding `O=C(C=Cc1ccccc1O)c1ccccc1` [2-Hydroxychalcone], the LC retention time amounted to 1.01 min.
The same measure for `O=C(O)CCC(O)C(=O)O` (centres undefined) [2-Hydroxyglutaric acid]: 0.91 min.
With `O=c1ccc2ccccc2[nH]1` [2-Hydroxyquinoline] the figure was 1.51 min; with `Oc1cc2ccccc2[nH]1` [2-Indolinone], 1.36 min; with `C=Cc1ccc(O)c(OC)c1` [2-Methoxy-4-vinylphenol], 8.71 min.
For `CCCCCCCCCCCCCC(=O)OC(CO)CO` [2-Myristoylglycerol], the LC retention time came out at 1.01 min.
As for `CCCCCCCCCCCCCCCC(=O)OC(CO)CO` [2-Palmitoylglycerol], the LC retention time came out at 0.99 min.
The same measure for `NC(=O)Cc1ccccc1` [2-Phenylacetamide]: 1.26 min; for `CCC(=O)NCC(=O)O` [2-Propanamidoacetic acid]: 5.37 min; for `O=c1cccc[nH]1` [2-Pyridone]: 2.05 min.
Regarding `Nc1ccn(C2OC(CO)C(O)C2O)c(=S)n1` (centres undefined) [2-Thiocytidine], the LC retention time was determined as 5.33 min.
For the compound `O=c1ccn(C2OC(CO)C(O)C2O)c(=S)[nH]1` (centres undefined) [2-Thiouridine], the LC retention time was 2.48 min.
In the case of `OCC1OC(OC2C(O)OC(CO)C(O)C2O)C(O)C(O)C1O` (stereo not drawn) [2-alpha-Mannobiose], the LC retention time is 9.47 min.
With `Nc1ncnc2c1ncn2C1CC2OP(=O)(O)OCC2O1` (centres undefined) [3',5'-Cyclic dAMP] the figure was 7.29 min; with `COC1C(CO)OC(n2ccc(N)nc2=O)C1O` (centres undefined) [3'-O-Methylcytidine], 5.09 min.
The same measure for `COC1C(CO)OC(n2cnc3c(=O)[nH]c(N)nc32)C1O` (centres undefined) [3'-O-Methylguanosine]: 5.8 min.
The same measure for `COC1C(CO)OC(n2ccc(=O)[nH]c2=O)C1O` (centres undefined) [3'-O-Methyluridine]: 2.42 min; for `O=C(O)C(O)c1ccc(O)c(O)c1` (centres undefined) [3,4-Dihydroxymandelic acid]: 2.3 min.

These data come from the RepoRT retention time repository.
